Source: ChEMBL document CHEMBL1131949, “Stereoselective synthesis and receptor activity of conformationally defined retinoid X receptor selective ligands” (Bioorg Med Chem Lett, 1999)

Key:
[1] = molecular target: T1, Retinoic acid receptor RXR-gamma (Homo sapiens, UniProt P48443); assay: Inhibition of [3H]-9-cis RA binding to Retinoid X receptor RXR gamma
T1 sequence (P48443 whole entry): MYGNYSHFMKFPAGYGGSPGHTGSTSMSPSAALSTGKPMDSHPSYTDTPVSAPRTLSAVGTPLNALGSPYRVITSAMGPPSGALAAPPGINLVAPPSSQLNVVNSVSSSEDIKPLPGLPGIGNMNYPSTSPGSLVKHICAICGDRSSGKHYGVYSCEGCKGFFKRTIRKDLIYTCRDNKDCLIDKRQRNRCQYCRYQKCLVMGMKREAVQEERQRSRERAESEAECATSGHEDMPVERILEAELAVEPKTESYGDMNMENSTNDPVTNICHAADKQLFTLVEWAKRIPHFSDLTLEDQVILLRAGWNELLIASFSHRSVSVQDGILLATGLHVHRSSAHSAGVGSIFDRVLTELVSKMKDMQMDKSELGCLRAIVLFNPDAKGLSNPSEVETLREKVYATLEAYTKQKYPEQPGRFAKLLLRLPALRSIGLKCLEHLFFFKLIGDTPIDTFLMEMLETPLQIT

[2] = molecular target: T2, Retinoic acid receptor RXR-beta (Homo sapiens, UniProt P28702); assay: Inhibition of [3H]-9-cis RA binding to Retinoid X receptor RXR beta
T2 sequence (P28702 whole entry): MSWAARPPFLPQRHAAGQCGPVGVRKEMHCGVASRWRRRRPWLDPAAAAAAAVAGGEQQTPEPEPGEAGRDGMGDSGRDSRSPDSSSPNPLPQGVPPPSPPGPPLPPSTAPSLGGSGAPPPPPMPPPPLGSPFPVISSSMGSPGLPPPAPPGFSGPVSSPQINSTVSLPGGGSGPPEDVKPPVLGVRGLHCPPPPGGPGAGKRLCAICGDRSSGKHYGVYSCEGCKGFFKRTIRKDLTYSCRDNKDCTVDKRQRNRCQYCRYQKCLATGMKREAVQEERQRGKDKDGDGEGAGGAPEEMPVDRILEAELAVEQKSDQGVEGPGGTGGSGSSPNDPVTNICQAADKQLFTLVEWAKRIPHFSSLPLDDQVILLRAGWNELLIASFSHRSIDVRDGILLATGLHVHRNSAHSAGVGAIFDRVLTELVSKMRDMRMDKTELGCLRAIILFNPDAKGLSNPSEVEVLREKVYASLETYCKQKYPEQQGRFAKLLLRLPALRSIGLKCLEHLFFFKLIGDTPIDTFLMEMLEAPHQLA

Kd [1]	Kd [2]	SMILES
14 nM	15 nM	CC1=C(/C=C/c2occc2/C=C/C(C)=C/C(=O)O)C(C)(C)CCC1
35 nM	53 nM	CC1=C(/C=C/c2ccccc2/C=C/C(C)=C/C(=O)O)C(C)(C)CCC1
